Results: article PMC2365111, “Cytotoxicity of Poly(Phenolic)Sulfonates and Their Sodium Salts in L1210 Lymphoid Leukemia Cells” (Metal-Based Drugs, 1998)

Tests used:
SV40 replication = tested on: SV40 replication; parameters: method as in ref 38; settings: in HeLa cells ref 38; cited from earlier work
DNA polymerase = biological target: DNA polymerase; parameters: method as in ref 40; settings: non-competitively; enzyme name lost ref 40; read-out: inhibition of second DNA polymerase activity; cited from earlier work
HeLa cells = tested on: HeLa cells; parameters: method as in ref 38; settings: HeLa cells ref 38; cited from earlier work
[1] = tested on: DC-3F/9-OH-E (resistant 9-hydroellipticine subline); parameters: method as in ref 41; settings: cited from earlier work
[2] = tested on: Rauscher leukemic virus, Moloney murine sarcoma virus and avian myeloblastosis reverse transcriptase; settings: cited from earlier work
DC-3F = tested on: DC-3F; parameters: method as in ref 41; settings: cited from earlier work
DNA polymerase α = biological target: DNA polymerase α; parameters: method as in ref 40; settings: non-competitively ref 40; read-out: inhibition of DNA polymerase α activity; cited from earlier work
[3] = tested on: colorectal adenocarcinoma SW480; assay: Cytotoxicity, SW480 growth; format: cell-based, human
Excerpt: CYTOTOXlCITY OF POLY(PHENOLIC)SULFONATES AND THEIR SODIUM SALTS IN L1210 LYMPHOID LEUKEMIA CELLS Fei Wang, Amy E. Warren, Cheryl R. Barnes and Iris H. Hall* Division of Medicinal Chemistry and Natural Products University of North Carolina Chapel Hill, N.C. […] Because ofthese properties it was surmised that these poly(phenolic)sulfonated compounds may have antineoplastic activity. METHODS Source of Compounds Test compounds were supplied by GeneLabs, Inc. [Redwood City, CA [Table 1]. Radioisotopes were obtained from New England Nuclear [Dupont, Boston, MA]. Substrates and co-factors were purchased om Sigma Chemical Co., [St Louis, MO]. Pentosan sulfate and other antineoplastic standards were obtained from Sigma Chemical Co. Tumor lines were obtained from American Type Culture Collection [Rockville, MD]. 147 Vol. 5, No. 3, 1998 Cytotoxicity ofSodium Poly(Phenolic)Sulfonates in L1210 Lymphoid Leukemia Cells Table 1 Structures of Poly(phenolic)sulfonate Compounds O2R" n Compound R' R" n MW # G1-2041 H OH 8 1489.46 G1-2029 H OH 6 1117.09 G1-2030 H OH 4 744.73 GI-2021 CH3 ONa 8 1777.5 G1-2057 CH3 ONa 4 888.75 GI-2158 CH3 ONa 6 1333.13 GI-2063 OCH3 ONa 8 2001.65 G1-2042 OAc ONa 8 2017.73 Cytotoxicity Poly(phenolic)sulfonates were tested for cytotoxic activity by homogenizing drug in 0.05% Tween 80/H20 to give a mg/ml stock concentration. These solutions were sterilized by passing them through an acrodisc ([…]). The following cell lines were maintained by literature techniques: murine L1210 lymphoid leukemia, P-388 lymphocytic leukemia, rat UMR 106 osteosarcoma, human Tmolt3 acute lymphoblastic T cell leukemia, HUT-8 lymphoma, HeLa-S suspended cervical carcinoma, HeLa solid cervical carcinoma, KB epidermoid nasopharynx, A431 epidermoid carcinoma, colorectal adenocarcinoma SW480, HCT-8 ileocecal adenocarcinoma, lung bronchogenic MB-9812, A549 lung carcinoma, and glioma HS683. […] Cell numbers were determined by the trypan blue exclusion technique. Solid tumor cytotoxicity was determined by Leibovitz et al. 's method utilizing crystal violeeOH and read at 562 nm (Molecular Devices). Values for cytotoxicity were expressed as EDs0 g/ml, i.e. the concentration ofthe compound inhibiting 50% ofcell growth. […] Incorporation of 4C- formate (53.0 mCi/mmol) into pyrimidines was determined by the method of Christopherson et al.[13]. […] DNA polymerase Ot activity was determined in cytoplasmic extracts isolated by Eichler et aL's method. […] Messenger-, ribosomal- and transfer-RNA polymerase enzymes were isolated with different concentrations of ammonium sulfate; individual RNA polymerase activities were determined using 3H -UTP 16,17]. Ribonucleoside reductase activity was measured using 4C -CDP with dithioerythritol. […]

[4] = tested on: KB epidermoid nasopharynx; assay: Cytotoxicity, KB growth; format: cell-based, human; settings: concentration inhibiting 50% of cell growth
Excerpt: (§1) CYTOTOXlCITY OF POLY(PHENOLIC)SULFONATES AND THEIR SODIUM SALTS IN L1210 LYMPHOID LEUKEMIA CELLS Fei Wang, Amy E. Warren, Cheryl R. Barnes and Iris H. Hall* Division of Medicinal Chemistry and Natural Products University of North Carolina Chapel Hill, N.C. […] Because ofthese properties it was surmised that these poly(phenolic)sulfonated compounds may have antineoplastic activity. METHODS Source of Compounds Test compounds were supplied by GeneLabs, Inc. [Redwood City, CA [Table 1]. Radioisotopes were obtained from New England Nuclear [Dupont, Boston, MA]. Substrates and co-factors were purchased om Sigma Chemical Co., [St Louis, MO]. Pentosan sulfate and other antineoplastic standards were obtained from Sigma Chemical Co. Tumor lines were obtained from American Type Culture Collection [Rockville, MD]. […] Cell numbers were determined by the trypan blue exclusion technique. Solid tumor cytotoxicity was determined by Leibovitz et al. 's method utilizing crystal violeeOH and read at 562 nm (Molecular Devices). Values for cytotoxicity were expressed as EDs0 g/ml, i.e. the concentration ofthe compound inhibiting 50% ofcell growth. […] Incorporation of 4C- formate (53.0 mCi/mmol) into pyrimidines was determined by the method of Christopherson et al.[13]. […] DNA polymerase Ot activity was determined in cytoplasmic extracts isolated by Eichler et aL's method. […] Messenger-, ribosomal- and transfer-RNA polymerase enzymes were isolated with different concentrations of ammonium sulfate; individual RNA polymerase activities were determined using 3H -UTP 16,17]. Ribonucleoside reductase activity was measured using 4C -CDP with dithioerythritol. […]

[5] = tested on: lung bronchogenic MB-9812; assay: Cytotoxicity, MB-9812 growth; format: cell-based, human
Excerpt: as §1, with “MO].” for “MO]. Pentosan sulfate and other antineoplastic standards were obtained from Sigma Chemical Co. Tumor lines were obtained from American Type Culture Collection [Rockville, MD].”, “16,17].” for “16,17]. Ribonucleoside reductase activity was measured using 4C -CDP with dithioerythritol.”

[6] = tested on: human Tmolt3 acute lymphoblastic T cell leukemia; assay: Cytotoxicity, Tmolt3 growth; format: cell-based; settings: concentration inhibiting 50% of cell growth
Excerpt: as §1, with “MO].” for “MO]. Pentosan sulfate and other antineoplastic standards were obtained from Sigma Chemical Co. Tumor lines were obtained from American Type Culture Collection [Rockville, MD].”, “16,17].” for “16,17]. Ribonucleoside reductase activity was measured using 4C -CDP with dithioerythritol.”

[7] = tested on: HeLa-S suspended cervical carcinoma; assay: Cytotoxicity, HeLa-S3 growth; format: cell-based, human; settings: concentration inhibiting 50% of cell growth
Excerpt: as §1, with “MO].” for “MO]. Pentosan sulfate and other antineoplastic standards were obtained from Sigma Chemical Co. Tumor lines were obtained from American Type Culture Collection [Rockville, MD].”, “16,17].” for “16,17]. Ribonucleoside reductase activity was measured using 4C -CDP with dithioerythritol.”

[8] = tested on: murine L1210 lymphoid leukemia; format: cell-based, mouse; settings: concentration inhibiting 50% of cell growth
Excerpt: CYTOTOXlCITY OF POLY(PHENOLIC)SULFONATES AND THEIR SODIUM SALTS IN L1210 LYMPHOID LEUKEMIA CELLS Fei Wang, Amy E. Warren, Cheryl R. Barnes and Iris H. Hall* Division of Medicinal Chemistry and Natural Products University of North Carolina Chapel Hill, N.C. […] Because ofthese properties it was surmised that these poly(phenolic)sulfonated compounds may have antineoplastic activity. METHODS Source of Compounds Test compounds were supplied by GeneLabs, Inc. [Redwood City, CA [Table 1]. Radioisotopes were obtained from New England Nuclear [Dupont, Boston, MA]. Substrates and co-factors were purchased om Sigma Chemical Co., [St Louis, MO]. Pentosan sulfate and other antineoplastic standards were obtained from Sigma Chemical Co. Tumor lines were obtained from American Type Culture Collection [Rockville, MD]. 147 Vol. 5, No. 3, 1998 Cytotoxicity ofSodium Poly(Phenolic)Sulfonates in L1210 Lymphoid Leukemia Cells Table 1 Structures of Poly(phenolic)sulfonate Compounds O2R" n Compound R' R" n MW # G1-2041 H OH 8 1489.46 G1-2029 H OH 6 1117.09 G1-2030 H OH 4 744.73 GI-2021 CH3 ONa 8 1777.5 G1-2057 CH3 ONa 4 888.75 GI-2158 CH3 ONa 6 1333.13 GI-2063 OCH3 ONa 8 2001.65 G1-2042 OAc ONa 8 2017.73 Cytotoxicity Poly(phenolic)sulfonates were tested for cytotoxic activity by homogenizing drug in 0.05% Tween 80/H20 to give a mg/ml stock concentration. These solutions were sterilized by passing them through an acrodisc ([…]). The following cell lines were maintained by literature techniques: murine L1210 lymphoid leukemia, P-388 lymphocytic leukemia, rat UMR 106 osteosarcoma, human Tmolt3 acute lymphoblastic T cell leukemia, HUT-8 lymphoma, HeLa-S suspended cervical carcinoma, HeLa solid cervical carcinoma, KB epidermoid nasopharynx, A431 epidermoid carcinoma, colorectal adenocarcinoma SW480, HCT-8 ileocecal adenocarcinoma, lung bronchogenic MB-9812, A549 lung carcinoma, and glioma HS683. Geran et al.'s protocol was used to assess the cytotoxicity of the compounds and standards in each cell line. Cell numbers were determined by the trypan blue exclusion technique. Solid tumor cytotoxicity was determined by Leibovitz et al. 's method utilizing crystal violeeOH and read at 562 nm (Molecular Devices). Values for cytotoxicity were expressed as EDs0 g/ml, i.e. the concentration ofthe compound inhibiting 50% ofcell growth. A value of less than 4 µg/ml was required for significant activity ofgrowth inhibition. Incorporation Studies Incorporation of labeled precursors into 3H-DNA, 3H -RNA and 3H -protein for 10 L1210 cells was obtained. The concentration response for inhibition of DNA, RNA and protein synthesis of the compounds at 25, 50 and 100 l.tM was determined for 60 min incubations. Incorporation of 14C -glycine (53.0 mCi/mmol) into purines was obtained by the method of Cadman et al.[12]. Incorporation of 4C- formate (53.0 mCi/mmol) into pyrimidines was determined by the method of Christopherson et al.[13]. Enzyme Assays Inhibition of various enzyme activities was performed by first preparing the appropriate L1210 cell homogenates or subcellular fractions, then adding the drug to be tested during the enzyme assay. For the concentration response studies, inhibition of enzyme activity was determined at 25, 50 and 100 l.tM of compounds G1-2021, G1-2029, GI-2041 and G1-2063 after 60 min incubations. DNA polymerase Ot activity was determined in cytoplasmic extracts isolated by Eichler et aL's method. The DNA polymerase assay was described by Sedwick et al.[15] using 3H-TTP. Messenger-, ribosomal- and transfer-RNA polymerase enzymes were isolated with different concentrations of ammonium sulfate; individual RNA polymerase activities were determined using 3H -UTP 16,17]. Ribonucleoside reductase activity was measured using 4C -CDP with dithioerythritol. The deoxyribonucleotides 4C -dCDP were separated from the ribonucleotides by TLC on PEI plates. […]

For Cc1ccc(C(=O)Nc2ccc(S(=O)(=O)O)c3cc(S(=O)(=O)O)cc(S(=O)(=O)O)c23)cc1NC(=O)c1cccc(NC(=O)Nc2cccc(C(=O)Nc3cc(C(=O)Nc4ccc(S(=O)(=O)O)c5cc(S(=O)(=O)O)cc(S(=O)(=O)O)c45)ccc3C)c2)c1 [suramin], the “concentration required to inhibit SV40 replication” value (SV40 replication) is listed as 40 µM, the IC50 (DNA polymerase) is listed as 36 µM and the “concentration required to cause death” value (HeLa cells) is listed as 250 µg/mL. The ED50 [1] was 203 µM, the “concentration inhibiting reverse transcriptase activities” value [2] was 0.1 µg/mL and the ED50 (DC-3F) was 31 µM. The IC50 (DNA polymerase α) was 8 µM.
For O=S(=O)(O)c1cc2c(O)c(c1)Cc1cc(S(=O)(=O)O)cc(c1O)Cc1cc(S(=O)(=O)O)cc(c1O)Cc1cc(S(=O)(=O)O)cc(c1O)C2 [GI-2030], the “activity, in words” value [3] was “active” and the ED50 ([3]; concentration inhibiting 50% of cell growth) was “less than 2 μg/ml”.
COc1c2cc(S(=O)(=O)[O-])cc1Cc1cc(S(=O)(=O)[O-])cc(c1OC)Cc1cc(S(=O)(=O)[O-])cc(c1OC)Cc1cc(S(=O)(=O)[O-])cc(c1OC)Cc1cc(S(=O)(=O)[O-])cc(c1OC)Cc1cc(S(=O)(=O)[O-])cc(c1OC)C2.[Na+].[Na+].[Na+].[Na+].[Na+].[Na+] [GI-2158] showed an ED50 [4] of 3.24 µg/mL.
For pentosan sulfate [reference compound], the “growth suppression, in words” value [5] was “suppressed moderately”, the ED50 [6] was less than 3 µg/mL and the ED50 [7] was less than 3 µg/mL. It also gave an ED50 [8] of less than 3 µg/mL.
